Data as given in patent publication US7408048B2, “Mammalian grainyhead transcription factors” (Melbourne Health, priority 2002, dated 2008).
Marks after values point to notes of the source that are not given here.

Columns and labels:
GRHL-3^−/− mice = type: in vivo, mouse; settings: for Observed NTDs: GRHL-3^−/− embryos from GRHL-3^+/− intercrosses, given to pregnant females, embryos harvested E14.5; for Predicted NTDs: predicted from the response of ct/ct embryos; for Mean litter size / frequency of resorptions: mouse, in vivo
Protocol: GRHL-3^+/− mice were inter-crossed and folate, inositol or PBS placebo was administered to pregnant females as previously described. Embryos were harvested on E14.5 and genotyped and examined morphologically. […] The results were analysed statistically by the one-sided binomial probability test. NTDs in the curly tail mice are resistant to folate administered in early gestation. […] The effects of folate and inositol administration on pregnant GRHL-3^+/− mice previously mated with GRHL-3^+/− males was examined (Table 6). As expected, no rescue of spina bifida in GRHL-3^−/− embryos with placebo or folate treatment was observed. […] Although the numbers of embryos examined was small, the result was highly significant (p<0.001) given the 70% reduction in the incidence of spina bifida in inositol-treated ct/ct embryos. These findings indicate that GRHL-3 expression is essential for inositol-mediated rescue of folate-resistant NTDs.

curly tail (ct/ct) mice = settings: cited from earlier work
[1] = tested on: five concatamerized GAL4 DNA binding sites upstream of the CAT gene in 293T cell line; test: GAL4 DNA binding domain fusion / CAT reporter co-transfection; type: cell-based; settings: fused to GAL4 DNA binding domain, human 293T cell line
From the text: Although significant sequence homology exists between grh and the shorter mgr isoforms and p70 mgr, the isoleucine rich transcriptional activation domain identified in the fly protein is not conserved. […] In view of the high degree of conservation of the first three coding exons of p70 mgr and bom, it was postulated that this could be the functional domain responsible for activation. To address this, the cDNA fragment encoding the first 93 amino acids of human p70 MGR (encoded by the first three exons) was subcloned in frame with the GAL4 DNA binding domain in a mammalian expression vector. […] These plasmids were co-transfected into the human 293T cell line with a reporter plasmid containing five concatamerized GAL4 DNA binding sites upstream of the chloramphenicol acetyltransferase (CAT) gene. The vector containing only the GAL4 DNA-BD or containing the VP16 activation domain fused to the GAL DNA-BD served as the negative and positive controls, respectively.

[2] = tested on: Drosophila dopa decarboxylase promoter; test: EMSA with JEG-3 nuclear extract, Dopa decarboxylase promoter probe; type: binding; settings: anti-MGR antisera
From the text: (§1) FIG. 2 is a photographic representation showing that p70 MGR binds to Drosophila gene regulatory sequences which bind grh. (A) p70 MGR binds to the Drosophila PCNA promoter. Nuclear extract from the JEG-3 cell line was studied in an EMSA with a PCNA promoter probe in the presence and absence of anti-MGR specific antisera. Antisera 611 was raised against peptides common to the p70 and p49 MGR proteins in the dimerization domain and antisera 67 was raised against unique peptides in the NH2-terminal domain of p70 MGR. The migration of the MGR complex is shown in arrows. (B) p70 MGR binds to the Drosophila dopo decarboxylase promoter. Experimental conditions were as described for (A).
(§2) To determine the extent of the functional homology between GRH and MGR, it was initially examined whether the mammalian protein could bind to the well-characterized binding sites for the Drosophila factor in the Dopa decarboxylase and PCNA gene regulatory regions (Uv et al., Mol. Cell. Biol. 17: 6727-6735, 1997; Hayashi et al., J. Biol. Chem. 274: 35080-35088, 1999). Oligonucleotide probes encompassing these sites were incubated with nuclear extract from the human placental cell line JEG-3, which expresses both isoforms of MGR at RNA and protein level and analyzed in an electrophoretic mobility shift assay (EMSA). […]

human En-1 promoter [3] = test: EMSA competition with JEG-3 nuclear extract, En-1 promoter probe; type: binding; settings: cold En-1 probe competing with Ddc probe
From the text: (§3) FIG. 3 are representations showing that p70 MGR binds to and transactivates the human En-1promoter. (A) Identifcation of a grh consensus DNA binding site in the human En-1promoter. The consensus sequence for grh DNA binding (SEQ ID NO: 50) compiled from an alignment of the Drosophila Ultrabithorax, Dopa decarboxylase and fushi tarazu promoters was compared with the sequence of the proximal human En-1 promoter (SEQ ID NO: 49) and the Drosophilaengrailed promoter (SEQ ID NO: 48). The closed bracket indicates the extend of the grainyhead binding site in the engrailed promoter as defined by DNAseI footprinting. (B) Human p70 MGR binds 5 to the human En-1 promoter. Nuclear extract from the JEG-3 cell line was studied in an EMSA with a Ddc promoter probe in the presence of pre-immune sera (lane 1), anti-MGR specific antisera (detailed in legend to FIG. 2) (lane 2) or cold competitor DNA (lanes 3-5). A 50-fold excess of the Ddc probe was used in lane 3 and a 10- and 20-fold excess of a human En-1promoter probe in lanes 4 and 5, respectively. The migration of the MGR/DNA complex is shown by arrows. (C) Human p70 MGR transactivates the En-1promoter. […]

human En-1 promoter [4] = test: En-1 promoter / luciferase reporter transfection in COS cells; type: cell-based; settings: p70 MGR expression vector vs empty vector, MGR null cell line COS
From the text: as §3

Drosophila PCNA promoter = test: EMSA with JEG-3 nuclear extract, PCNA promoter probe; type: binding; settings: anti-MGR antisera
From the text: as §1, §2

O[C@H]1[C@H](O)[C@@H](O)[C@H](O)[C@@H](O)[C@H]1O [Inositol, inositol]
Observed NTDs (GRHL-3^−/− mice): 100%* | rescue of spina bifida (incidence, severity) (GRHL-3^−/− mice; GRHL-3^−/− embryos, treatment of pregnant GRHL-3^+/− mice): neither the incidence, nor severity of the spina bifida in the GRHL-3^−/− embryos was alleviated | Predicted NTDs (GRHL-3^−/− mice; GRHL-3^−/− embryos): 30% | Mean litter size (GRHL-3^−/− mice): did not differ significantly | frequency of resorptions (GRHL-3^−/− mice): did not differ significantly | effect on NTDs / incidence of spina bifida (curly tail (ct/ct) mice; curly tail mice, administered in early gestation / pregnancy): marked reduction | reduction in the incidence of spina bifida (curly tail (ct/ct) mice; inositol-treated ct/ct embryos): 70%

VP16
transcriptional activation of the CAT gene [1]: transcriptional activation of the CAT gene was observed

Nc1nc2ncc(CNc3ccc(C(=O)N[C@@H](CCC(=O)O)C(=O)O)cc3)nc2c(=O)[nH]1 [Folate, folate]
Observed NTDs (GRHL-3^−/− mice): 100% | Predicted NTDs (GRHL-3^−/− mice; GRHL-3^−/− embryos): 100% | Mean litter size (GRHL-3^−/− mice): did not differ significantly | frequency of resorptions (GRHL-3^−/− mice): did not differ significantly

p70 MGR: human mammalian Grainyhead isoform p70, SEQ ID NO:4; first 93 amino acids fused to GAL4 DNA binding domain in b240
binding to dopa decarboxylase promoter probe [2]: binds | binding to En-1 promoter (human En-1 promoter [3]): binds | transcriptional activity of the En-1 promoter (human En-1 promoter [4]): dramatically enhanced | transcriptional activation of the CAT gene [1]: transcriptional activation of the CAT gene was observed | binding to PCNA promoter probe (Drosophila PCNA promoter): binds

B1: p49 mgr: human mammalian Grainyhead isoform p49, SEQ ID NO:2; full length fused to GAL4 DNA binding domain (protein)
chain: MASLWESPQQCIILSPLSGWWFSIGISILTSSALVLKPQMLKGELQTRPSQRPSRKAFRRNNFEYTLEASKSLRQKPGDSTMTYLNKGQFYPITLKEVSSSEGIHHPISKVRSVIMVVFAEDKSREDQLRHWKYWHSRQHTAKQRCIDIADYKESFNTISNIEEIAYNAISFTWDINDEAKVFISVNCLSTDFSSQKGVKGLPLNIQVDTYSYNNRSNKPVHRAYCQIKVFCDKGAERKIRDEERKQSKRKVSDVKVPLLPSHKRMDITVFKPFIDLDTQPVLFIPDVHFANLQRGTHVLPIASEELEGEGSVLKRGPYGTEDDFAVPPSTKLARIEEPKRVLLYVRKESEEVFDALMLKTPSLKGLMEAISDKYDVPHDKIGKIFKKCKKGILVNMDDNIVKHYSNEDT
modifications: GAL4 DNA-binding domain fusion; human
transcriptional activation of the CAT gene [1]: No activation was observed

B2: bom: brother of mammalian grainyhead; region comparable to first 93 amino acids of p70 MGR fused to GAL4 DNA binding domain (protein)
chain: MSQESDNNKRLVALVPMPSDPPFNTRRAYTSEDEAWKSYLENPLTAATKAMMSINGDEDSAAALGLLYDYYKVPRDKRLLSVSKASDSQEDQEKRNCLGTSEAQSNLSGGENRVQVLKTVPVNLSLNQDHLENSKREQYSISFPESSAIIPVSGITVVKAEDFTPVFMAPPVHYPRGDGEEQRVVIFEQTQYDVPSLATHSAYLKDDQRSTPDSTYSESFKDAATEKFRSASVGAEEYMYDQTSSGTFQYTLEATKSLRQKQGEGPMTYLNKGQFYAITLSETGDNKCFRHPISKVRSVVMVVFSEDKNRDEQLKYWKYWHSRQHTAKQRVLDIADYKESFNTIGNIEEIAYNAVSFTWDVNEEAKIFITVNCLSTDFSSQKGVKGLPLMIQIDTYSYNNRSNKPIHRAYCQIKVFCDKGAERKIRDEERKQNRKKGKGQASQTQCNSSSDGKLAAIPLQKKSDITYFKTMPDLHSQPVLFIPDVHFANLQRTGQVYYNTDDEREGGSVLVKRMFRPMEEEFGPVPSKQMKEEGTKRVLLYVRKETDDVFDALMLKSPTVKGLMEAISEKYGLPVEKIAKLYKKSKKGILVNMDDNIIEHYSNEDTFILNMESMVEGFKVTLMEI
modifications: human
transcriptional activation of the CAT gene [1]: transcriptional activation of the CAT gene was observed
